The source of these data is BindingDB's records for doi:10.1021/jm00119a003 (Northeastern University, 1988).

The assay has as its target D(1A) dopamine receptor (Canis familiaris). The assay can be described thus: Ability to inhibit the binding of [3H]-SCH- 23390 to canine striatal membrane.

Molecules are shown by their SMILES.

Consider `CN1CCc2cc(I)c(O)cc2C(c2ccc(N=[N+]=[N-])cc2)C1` (stereo unspecified) [5-(4-Azido-phenyl)-8-iodo-3-methyl-2,3,4,5-tetrahydro-1H-benzo[d]azepin-7-ol], for which the affinity, expressed as Kd, was 0.15 nM. This lies in the sub-nanomolar range.
